Experiments:
Chardonnay vine plants = experiment: Frost-resistance of young vine plants, Chardonnay (foliar spraying, cold stress, foliar necroses); format: in vivo
Protocol: (§1) Plants originating from different vine varieties: the Chardonnay and Cabernet-Sauvignon varieties are used. Each sample, composed of 5 to 21 plants, is treated by foliar spraying at different vegetative stages on the BBCH scale with a mixture containing the xyloglucan elicitor, heptasaccharide XFGol or heptamaloxyloglucan, in solution at variable doses combined or not combined with sorbitol; the spraying of 2.5 ml of solution per plant is carried out using a sprayer (deviation of +/−1%). After use of the elicitor, the plants were exposed to cold stress of variable intensity and duration. After exposure to the cold, the plants are placed in a climatic chamber at 20° C. with a 12-hour day/night alternation. The appearance of the leaves is observed 24 hours and 72 hours after removal from the cold. The effects of the cold are evaluated by observing the foliar necroses induced by frost and the plants are kept for several months in order to monitor their subsequent development. The results are expressed by the protection index c (%)=100−P; P, being the proportion of foliar necroses. The results are also expressed in gain: [formula]

[1] = test system: Cabernet-Sauvignon vine plants; experiment: Frost-resistance of young vine plants, Cabernet-Sauvignon (foliar spraying, cold stress, foliar necroses); format: in vivo
Protocol: as §1

SMILES | effect of sorbitol on frost protection (Chardonnay vine plants; 0.1% sorbitol, when the elicitor itself has no effect) | effect of sorbitol on frost protection ([1]; Cabernet-Sauvignon, 0.1% sorbitol, when the elicitor itself has no effect) | If % average (protection index) (Chardonnay vine plants; all physiological stages combined, 5 nM elicitor) | Gain % (Chardonnay vine plants; all physiological stages combined, 5 nM elicitor, vs dry control) | Gain % ([1]; Cabernet-Sauvignon second series, 500 nM elicitor, vs dry control) | If % average (protection index) ([1]; Cabernet-Sauvignon second series, all physiological stages combined, 500 nM elicitor)
OC[C@@H](O)[C@@H](O)[C@H](O)[C@@H](O)CO [sorbitol] | without effect | without effect |  |  |  | 
CC1OC(OC2C(OC3C(OCC4OC(OC(C(O)CO)C(O)C(O)CO)C(O)C(O)C4OC4OC(COC5OCC(O)C(O)C5O)C(O)C(O)C4O)OCC(O)C3O)OC(CO)C(O)C2O)C(O)C(O)C1O (stereo not drawn) [Elicitor, heptamaloxyloglucan] |  |  | 40% | 0% | 200% | 60%
